Laboratory results from patent US11324832B2, “Tripartite modulators of endosomal G protein-coupled receptors” (Endosome Therapeutics, Inc., priority 2015, dated 2022).
Where a SMILES comes first, the peptide text is derived from it. [ ]: non-standard residue; d: D form. The star is where a group is joined. X1 = CC(C)CCC[C@@H](C)[C@H]1CC[C@H]2[C@@H]3CC[C@H]4C[C@@H](O*)CC[C@]4(C)[C@H]3CC[C@]12C; NMeL = CN[C@@H](CC(C)C)C(=O)O; PEG4 = NCCOCCOCCOCCOCCC(=O)O; PEG3 = NCCOCCOCCOCCC(=O)O; Ava = NCCCCC(=O)O

Legend:
[1] = molecular target: T1, NK1R (Rattus norvegicus, UniProt P14600); assay: Calcium mobilization assay, agonist mode, HEK293 cells expressing NK1R; assay type: cell-based; parameters: Full length and truncated 6312 rat HA-NK1R have been described; expressed in transfected cells; host or cells: HEK293
T1 sequence (P14600 whole entry, the tested form may be a part): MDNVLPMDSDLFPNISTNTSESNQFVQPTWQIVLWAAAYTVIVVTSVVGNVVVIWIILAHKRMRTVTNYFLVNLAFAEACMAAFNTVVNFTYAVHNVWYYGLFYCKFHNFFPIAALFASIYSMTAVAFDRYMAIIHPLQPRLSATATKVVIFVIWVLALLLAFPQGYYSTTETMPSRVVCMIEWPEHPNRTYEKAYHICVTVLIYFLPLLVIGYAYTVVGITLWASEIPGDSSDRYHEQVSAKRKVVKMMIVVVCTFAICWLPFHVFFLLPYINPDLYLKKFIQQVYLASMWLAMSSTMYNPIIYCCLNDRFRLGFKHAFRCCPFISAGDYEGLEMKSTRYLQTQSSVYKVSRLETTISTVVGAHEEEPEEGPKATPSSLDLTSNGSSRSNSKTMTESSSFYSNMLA
Excerpt: GR73632 was conjugated to cholestanol (Compound 3) or ethyl ester (GR73632-ethyl ester) via a flexible PEG linker. The effect of these compounds in HEK293 cells expressing NK1R was then studied.

[2] = molecular target: T1, NK1R; assay: BRET between NK1R-RLuc8 and βarr1/2-YFP in HEK293 cells; assay type: cell-based; parameters: Full length and truncated 6312 rat HA-NK1R have been described; expressed in transfected cells; host or cells: HEK293 (transient); details: agonist alone
Description: Bioluminescence Resonance Energy Transfer (BRET) was employed to quantitatively assess the proximity of the NK1R to key regulators of GPCR trafficking (βarrs), and resident proteins of plasma (KRas) and early endosomal (Rab5a) membranes in HEK293 cells (FIG. 1A).
HEK293 cells were transfected with the following cDNAs: 1 μg NK1R-RLuc8 or 1 μg CLR-RLuc8+1 μg Myc-RAMP1+4 μg KRas-Venus, 4 μg Rab5a-Venus, 4 μg βarr1-YFP, or 4 μg βarr2-YFP; or 1 μg NK1R+0.5 μg Gαq-RLuc8+1 μg Gβ1+4 μg Gγ2-Venus; or 1 μg NK1R+0.5 μg Gαq-RLuc8+1 μg Gβ1+1 μg Gγ2+4 μg Rab5a-Venus. After 48 h, cells were equilibrated in Hank's balanced salt solution (HBSS) at 37° C., and incubated with the RLuc substrate coelenterazine h (5 μM, 15 min).

[3] = molecular target: T1, NK1R; assay: FRET biosensors of compartmentalized signaling (ERK, PKC, cAMP) in NK1R-expressing HEK293 cells; assay type: cell-based; parameters: Full length and truncated 6312 rat HA-NK1R have been described; expressed in transfected cells; host or cells: HEK293 (transient); details: agonist alone, imaged over 20 min
Description: To study the link between NK1R trafficking and signaling, the NK1R and Förster Resonance Energy Transfer (FRET) biosensors targeted to detect activated ERK in the cytosol (CytoEKAR) or nucleus (NucEKAR, FIG. 2A), activated PKC at the plasma membrane (pmCKAR) or in the cytosol (CytoCKAR, FIG. 2C), and cAMP at the plasma membrane (pmEpac2) or in the cytosol (CytoEpac2, FIG. 2E) were expressed in HEK293 cells.
HEK293 cells were transfected with 55 ng/well rat NK1R with N-terminal HA. 11 epitope tag (HA-NK1R) or CLR plus RAMP1 and 40 ng/well FRET biosensors. FRET was assessed 48 h after transfection, following serum restriction (0.5% FBS overnight). For experiments using clathrin or dynamin siRNA, cells were transfected with 55 ng/well rat HA-NK1R, 40 ng/well FRET biosensor and 25 nM/well scrambled, clathrin or dynamin ON-TARGETplus SMARTpool siRNA (GE Dharmacon). FRET was assessed 72 h after transfection, following serum restriction (0.5% FBS overnight). Cells were equilibrated in HBSS at 37° C. and FRET was analyzed using a GE Healthcare INCell 2000 Analyzer. For GFP/RFP emission ratio analysis, cells were sequentially excited using a FITC filter (490/20) with emission measured using dsRed (605/52) and FITC (525/36) filters, and a polychroic optimized for the FITC/dsRed filter pair (Quad4). For CFP/YFP emission ratio analysis, cells were sequentially excited using a CFP filter (430/24) with emission measured using YFP (535/30) and CFP (470/24) filters, and a polychroic optimized for the CFP/YFP filter pair (Quad3). Cells were imaged every 1 min, allowing image capture of 14 wells per minute. Baseline emission ratio images were captured for 4 min. […] Cells were then stimulated with the positive control (200 nM phorbol 12,13-dibutyrate for ERK; 200 nM phorbol 12,13-dibutyrate with phosphatase inhibitor cocktail for PKC; 10 μM forskolin, 100 μM 3-isobutyl-1-methylxanthine, 100 nM PGE1 for cAMP) for 10 min to generate a maximal increase, and positive emission ratio images were captured for 4 min. Data were analyzed as described and expressed as emission ratios relative to baseline for each cell (F/F0). Cells with >10% change in F/F0 after stimulation with positive controls were selected for analysis.

[4] = molecular target: T2, endothelin converting enzyme 1 (Homo sapiens, UniProt P42892); details: cited from earlier work
T2 sequence (P42892 1-770): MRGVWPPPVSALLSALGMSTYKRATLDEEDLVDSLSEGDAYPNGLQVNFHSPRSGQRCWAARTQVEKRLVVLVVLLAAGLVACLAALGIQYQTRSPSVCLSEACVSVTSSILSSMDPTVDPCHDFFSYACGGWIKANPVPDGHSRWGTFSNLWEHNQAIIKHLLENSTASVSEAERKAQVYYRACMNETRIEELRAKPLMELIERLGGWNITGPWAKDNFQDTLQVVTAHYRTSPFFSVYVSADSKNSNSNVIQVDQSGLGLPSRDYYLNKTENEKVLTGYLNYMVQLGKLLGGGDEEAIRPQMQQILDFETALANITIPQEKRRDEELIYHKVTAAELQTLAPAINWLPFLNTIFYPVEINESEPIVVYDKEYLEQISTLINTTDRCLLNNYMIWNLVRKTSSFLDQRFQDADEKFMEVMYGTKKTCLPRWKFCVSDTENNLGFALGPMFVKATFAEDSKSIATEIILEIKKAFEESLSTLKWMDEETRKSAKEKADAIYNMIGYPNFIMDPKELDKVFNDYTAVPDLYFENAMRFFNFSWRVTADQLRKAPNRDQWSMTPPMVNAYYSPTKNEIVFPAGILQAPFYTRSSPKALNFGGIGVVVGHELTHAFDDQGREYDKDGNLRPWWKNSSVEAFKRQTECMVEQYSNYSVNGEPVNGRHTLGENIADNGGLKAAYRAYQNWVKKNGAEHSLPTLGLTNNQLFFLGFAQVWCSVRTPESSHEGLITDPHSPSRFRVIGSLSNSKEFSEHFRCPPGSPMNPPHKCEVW

| Compound | decrease in potency compared to the free agonist ([1]; calcium mobilization) | recruitment of βarrs (BRET NK1R-RLuc8 / βarr1-YFP, βarr2-YFP) [2] | cytosolic ERK activation (FRET CytoEKAR) [3] | nuclear ERK activation (FRET NucEKAR) [3] | susceptibility to cleavage by endothelin converting enzyme 1 [4] | EC50 ([1]; HEK293 cells expressing NK1R, given as logEC50 (negative)) |
| --- | --- | --- | --- | --- | --- | --- |
| CSCC[C@H](NC(=O)[C@H](CC(C)C)N(C)C(=O)[C@@H]1CCCN1C(=O)[C@H](Cc1ccccc1)NC(=O)[C@H](Cc1ccccc1)NC(=O)CCCCNC(=O)CCOCCOCCOCCOCCNC(=O)CCOCCOCCOCCNC(=O)CCOCCOCCOCCOCCNC(=O)[C@H](CC(=O)O[C@H]1CC[C@@]2(C)[C@@H](CC[C@@H]3[C@@H]2CC[C@]2(C)[C@@H]([C@H](C)CCCC(C)C)CC[C@@H]32)C1)NC(C)=O)C(N)=O [Compound 3] (Ac-D(X1)[PEG4][PEG3][PEG4][Ava]FFP[NMeL]M-NH2) | ~100 fold | does not induce recruitment of βarrs | no cytosolic ERK | stimulates sustained nuclear ERK phosphorylation | – | – |
| CSCC[C@H](NC(=O)[C@H](CC(C)C)N(C)C(=O)[C@@H]1CCCN1C(=O)[C@H](Cc1ccccc1)NC(=O)[C@H](Cc1ccccc1)NC(=O)CCCCN)C(N)=O [GR73632, Ava-Phe-Phe-Pro-N-MeLeu-Met-NH2] (H-[Ava]FFP[NMeL]M-NH2) | – | – | stimulated sustained cytosolic and nuclear ERK phosphorylation | stimulated sustained cytosolic and nuclear ERK phosphorylation | not susceptible to cleavage | 0.933 nM |
